From patent publication US12186413B2, “Non-cellular root canal filler and non-cellular dental tissue regeneration promotion kit” (KOWA COMPANY, LTD., priority 2019, dated 2025)
Like-named read-outs stand apart in the source and are kept apart here.

How the values were obtained:
dental pulp [1] = assay: Dental pulp regeneration after pulpectomy in young dogs with non-cellular root canal filler; type: in vivo, dog; conditions: for dental pulp regeneration (H-E staining, morphological observation) / infiltration / internal absorption of inflammatory cells: 12-month-old dogs; for dental pulp regeneration (H-E staining, morphological observation) / infiltration / internal absorption of inflammatory cells / regeneration of dental pulp-like tissues (H-E staining): trypsin pretreatment; for dental pulp regeneration (H-E staining, morphological observation): 1.25 μg compound B or 0.83 μg SB328437 + 150 ng G-CSF in 20 μl collagen; for infiltration / internal absorption of inflammatory cells: filler with G-CSF and collagen; for amount of the regenerated dental pulp (ratio of regenerated dental pulp area to dental pulp cavity area): compound B filler compared with SB328437 filler
Description: After general anesthesia, pulpectomy was performed for maxillary and mandibular right and left anterior teeth in young (12-month-old) dogs. The openings were enlarged to the apex of the root with #55, then washed alternately with a 5% sodium hypochlorite solution and a 3% hydrogen peroxide solution, further washed with saline, dried, and then temporarily sealed with a resin completely. At 3 to 12 days after the pulpectomy, the temporary seals were removed, and the openings were washed alternately and washed with saline again. Then, the root canals were filled with 3% EDTA (Smear Clean, Nippon Shika Yakuhin Co., Ltd.), treated for 2 minutes, further washed with saline, and dried. Then, the root canals were pretreated by the application of trypsin preparation (5 mg of Francetin T powder (2,500 USP crystal trypsin per 10 mg, Mochida Pharmaceutical Co., Ltd.)/ml of 0.5% nanobubble water (prepared with Foamest 8 (NAC Corp.); see Koichiro Iohara and Misako Nakajima “Enhanced Delivery of Antibacterial Nanopolymers with Nanobubbles for the Complete Disinfection of the Root Canal System in a Canine Model of Intractable Periapical Disease”, The Japanese Journal Of Conservative Dentistry, Vol. 63, No. 1, p. 73-82) for 10 minutes, and then washed with saline. Subsequently, a CCR3 antagonist (1.25 μg of compound B or 0.83 μg of SB328437 (Tocris Bioscience)) as a regeneration promoting compound and 150 ng of G-CSF (Neutrogin, Chugai Pharmaceutical Co., Ltd.) as a chemotactic factor were added to 20 μl of extracellular matrix collagen (Koken Atelocollagen Implant, Koken Co., Ltd.) to prepare a non-cellular root canal filler, which was then filled into the root canals. Then, a gelatin sponge for hemostasis (Spongel, Astellas Pharma Inc.) was placed thereon, and the cavities were completely sealed with glass ionomer cement and a photopolymerizable resin. Then, 28 days after transplantation, the teeth were extracted, and 5 μm paraffin sections were prepared on longitudinal sections according to a standard method, stained with H-E, and then morphologically observed. The amount of the regenerated dental pulp was evaluated by measuring the ratio of the area of regenerated dental pulp to the area of a dental pulp cavity as to four sections per sample, and calculating the mean of four samples. Angiogenesis was evaluated by staining day 28 specimens with Fluorescein labeled Griffonia simplicifolia (Bandeiraea simplicifolia) Lectin I (GSL I, BSL I) and Fluorescein labeled Galanthus nivalis (Snowdrop) Lectin (GNL) (Vector Laboratories) (20 μg/ml) for 15 minutes, followed by comparative examination. Neurite extension was evaluated by immunostaining day-28 specimens with an anti-PGP9.5 antibody (UltraClone, 1:10,000), followed by comparative examination.
After general anesthesia, pulpectomy was performed for maxillary and mandibular right and left anterior teeth in young (11-month-old) dogs. The openings were enlarged to the apex of the root with #55, then washed alternately with a 5% sodium hypochlorite solution and a 3% hydrogen peroxide solution, and further washed with saline. The root canals were thoroughly dried with a paper point and temporarily sealed with cement and a resin completely after hemostasis. Then, 8 days after the pulpectomy, the temporary seals were removed, and the openings were washed alternately and washed with saline again. Then, the root canals were filled with 3% EDTA (Smear Clean, Nippon Shika Yakuhin Co., Ltd.), treated for 2 minutes, further washed with saline, and dried. Then, the root canals were pretreated by the application of a trypsin preparation (5 mg of Francetin T powder (2,500 USP crystal trypsin per 10 mg), Mochida Pharmaceutical Co., Ltd.)/ml of 0.5% nanobubble water (prepared with Foamest 8 (NAC Corp.); as described in Example 1)) for 10 minutes, and then washed with saline. […]

dental pulp stem cells = conditions: dentin surfaces treated with trypsin in vitro; cited from earlier work
dental pulp [2] = conditions: cited from earlier work
[3] = Example 3, compound B filler, 28 days
[4] = Example 3, with and without trypsin pretreatment, 28 days

Compound: CC(C)Nc1ccc(CNCCN2Cc3ccc(F)cc3CC2Cc2ccc(F)cc2)cc1.O=C(O)/C=C/C(=O)O (single isomer, unassigned; (+)) [compound B, (+)-4-[[2-[6-fluoro-3-(4-fluorobenzyl)-3,4-dihydroisoquinolin-2(1H)-yl]ethylamino]methyl]-N-isopropylaniline monofumarate]
- dental pulp regeneration (H-E staining, morphological observation) (dental pulp [1]; Example 1, 28 days): found to cause dental pulp regeneration of loose connective tissues rich in blood vessels
- infiltration / internal absorption of inflammatory cells (dental pulp [1]; Example 1, 28 days): neither the infiltration nor internal absorption of inflammatory cells was observed
- amount of the regenerated dental pulp (ratio of regenerated dental pulp area to dental pulp cavity area) (dental pulp [1]; Example 1, 28 days): No statistically significant difference
- angiogenesis (lectin staining) (dental pulp [1]; Example 1, day 28 specimens): confirmed
- neurite extension (PGP9.5 immunostaining) (dental pulp [1]; Example 1, day 28 specimens): confirmed
- odontoblast-like cell adhesion to dentin side wall / dentin-like hard tissue formation (dental pulp [1]; Example 1, day 28 specimens): odontoblast-like cells adhere to the side wall of the dentin to form dentin-like hard tissues
- regeneration of dental pulp-like tissues (H-E staining) (dental pulp [1]; Example 2, 11-month-old dogs, 1.25 μg compound B + 150 ng G-CSF in collagen, 28 days): found to sufficiently regenerate dental pulp-like tissues
- amount of the regenerated dental pulp versus filler containing no compound B (dental pulp [1]; Example 2, 28 days): Statistically significant difference
- angiogenesis (BS-1 lectin staining) versus filler containing no compound B (dental pulp [1]; Example 2, 28 days): similar
- neurite extension (PGP9.5 immunostaining) versus filler containing no compound B (dental pulp [1]; Example 2, 28 days): similar
- regeneration of dental pulp tissues (H-E staining) (dental pulp [1]; Example 3, 11-month-old dogs, with or without trypsin pretreatment, 1.25 μg compound B + 150 ng G-CSF in collagen, 28 days): regeneration of dental pulp tissues was observed, regardless of whether trypsin pretreatment was performed or not
- amount of regenerated dental pulp, with versus without trypsin pretreatment (dental pulp [1]; [3]): tended to slightly increase the amount of regenerated dental pulp, albeit with no statistically significant difference
- odontoblast-like cell adhesion to dentin side wall and dentin-like hard tissue amount, with versus without trypsin pretreatment (dental pulp [1]; [3]): tended to allow more odontoblast-like cells to adhere to the side wall of the dentin and form dentin-like hard tissues in a slightly higher amount
- angiogenesis (BS-1 lectin staining) (dental pulp [1]; [4]): similarly observed in both these cases
- neurite extension (PGP9.5 immunostaining) (dental pulp [1]; [4]): similarly observed in both these cases
- dental pulp regeneration, odontoblast-like cell adhesion and dentin-like hard tissue formation (dental pulp [1]; Example 3, without trypsin pretreatment, 28 days): regenerates the dental pulp with angiogenesis and neurite extension

Compound: CS(=O)(=O)Nc1cccc(CNCCN2Cc3ccc(F)cc3CC2Cc2ccc(F)cc2)c1.O=C(O)CC(O)(CC(=O)O)C(=O)O (single isomer, unassigned; (+)) [compound C, (+)-N-[3-(methanesulfonylamino)benzyl]-2-[6-fluoro-3-(4-fluorobenzyl)-3,4-dihydroisoquinolin-2(1H)-yl]ethanamine monocitrate]
- regeneration of dental pulp-like tissues (H-E staining) (dental pulp [1]; Example 4, 11-month-old dogs, 1.2 μg compound C + 150 ng G-CSF in collagen, 28 days): found to sufficiently regenerate dental pulp-like tissues
- area of the dentin (ratio to area of tooth) versus filler containing no compound C (dental pulp [1]; Example 4, 28 days): tended to increase the area of the dentin
- density of dentin cells (within 1 mm from root canal side wall) versus filler containing no compound C (dental pulp [1]; Example 4, 28 days): increased the density of dentin cells

Compound: COC(=O)[C@H](Cc1ccc([N+](=O)[O-])cc1)NC(=O)c1cccc2ccccc12 [SB328437, reference compound]
- dental pulp regeneration (H-E staining, morphological observation) (dental pulp [1]; Example 1, 28 days): found to cause dental pulp regeneration of loose connective tissues rich in blood vessels
- infiltration / internal absorption of inflammatory cells (dental pulp [1]; Example 1, 28 days): neither the infiltration nor internal absorption of inflammatory cells was observed
- amount of the regenerated dental pulp (ratio of regenerated dental pulp area to dental pulp cavity area) (dental pulp [1]; Example 1, 28 days): No statistically significant difference
- angiogenesis (lectin staining) (dental pulp [1]; Example 1, day 28 specimens): confirmed
- neurite extension (PGP9.5 immunostaining) (dental pulp [1]; Example 1, day 28 specimens): confirmed
- odontoblast-like cell adhesion to dentin side wall / dentin-like hard tissue formation (dental pulp [1]; Example 1, day 28 specimens): odontoblast-like cells adhere to the side wall of the dentin to form dentin-like hard tissues

Compound: trypsin
- adhesion of the cells (dental pulp stem cells): increased the adhesion of the cells
- differentiation into odontoblasts (dental pulp stem cells): exhibited enhancement in differentiation into odontoblasts
- dental pulp regeneration (dental pulp [2]; middle-aged and elderly dogs, with dental pulp stem cell transplantation): promoted
- dental pulp regeneration (dental pulp [2]; without the transplantation of dental pulp stem cells): rarely observed
- dental pulp regeneration (dental pulp [2]; young dogs, with dental pulp stem cell transplantation): not found to be effective
